In patent US20230417751A1, “ANALYSIS OF PROTEIN KINASES IN LIVE CELLS” (Texas Tech University System, priority 2021, published 2023):

How the values were obtained:
[1] = biological target: T1, Akt1M-G (Homo sapiens, UniProt P31749, M227G); assay: Preliminary fluorogenic experiment with nanoparticle loaded with TNP-A*TP and alexa-fluo-647-ATP; format: cell-based; conditions: nanoparticle with TNP-A*TP and alexa-fluo-647-ATP 10:1
T1 construct: expressed in transfected cells
Method: The cells transfected with Akt1M-G or WT Akt1 expression vectors were treated with the nanoparticle. Alexa-fluo-647-ATP signal monitored nanoparticle delivery in all cells (FIG. 10A-D).

[2] = biological target: T2, mutant AKT1 (M227G) (Homo sapiens, UniProt P31749, M227G); assay: Intracellular A*TPγS delivery and thio-phosphorylation assay, cells transfected with mutant AKT1; format: cell-based
T2 construct: mutagenesis by GENEWIZ pcDNA3-myr-HA-AKT1 1036; host or cells: HCT116
T2 sequence (P31749 whole entry M227G): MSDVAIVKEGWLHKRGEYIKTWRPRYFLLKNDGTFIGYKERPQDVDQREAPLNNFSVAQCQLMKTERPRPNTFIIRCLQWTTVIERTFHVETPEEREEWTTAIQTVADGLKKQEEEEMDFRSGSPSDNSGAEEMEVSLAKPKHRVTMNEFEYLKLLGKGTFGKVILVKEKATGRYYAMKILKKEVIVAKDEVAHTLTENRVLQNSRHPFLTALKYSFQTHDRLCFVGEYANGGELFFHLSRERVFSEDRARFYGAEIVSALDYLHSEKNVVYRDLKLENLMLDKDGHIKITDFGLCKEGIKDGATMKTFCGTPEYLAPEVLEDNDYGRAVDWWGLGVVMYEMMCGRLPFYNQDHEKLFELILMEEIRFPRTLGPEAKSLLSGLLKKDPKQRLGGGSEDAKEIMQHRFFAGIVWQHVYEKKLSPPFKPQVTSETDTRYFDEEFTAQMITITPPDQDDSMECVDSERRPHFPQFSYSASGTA
Method: (§1) Plasmid constructs. Wild type AKT1 plasmid was purchased from Addgene (Addgene plasmid pcDNA3-myr-HA-AKT1 1036). Point mutation as in references (37) of the ATP-binding pocket gatekeeper amino acid (M227G) were introduced by GENEWIZ (New Jersey, USA), with a modified Strategene QuikChange® site-directed mutagenesis method.
(§2) Expression plasmid transfection. The HCT116 cells were plated into […] dishes and transfected at approximately 90% confluence with the specified plasmid (wild type pcDNA3-myr-HA-AKT1 plasmid or the mutant pcDNA3-myr-HA-AKT1 plasmid) using BP-Fectin mammalian cell transfection reagent (BioPioneer, USA) in accordance with the manufacturer's instructions. One untransfected dish was used as a negative control. After 72 hours, cells were washed twice with cold PBS. Transfection efficacy was confirmed by western-blot measurement of the expression of the HA-tagged fusion proteins with the HA tag monoclonal antibody (Thermo Fisher Scientific, USA).
(§3) Intracellular A*TPγS delivery and thio-phosphorylation assays. Control and transfected HCT116 cells were incubated with A*TPγS-loaded LCP nanoparticles for 4 hours. The cells were washed by cold PBS twice and then lysed with RIPA buffer (which contains protease and phosphatase inhibitors) for 30 minutes at 4° C. The cell lysates were treated with 2.5 mM PNBM at room temperature for 1 hour. Then, the PNBM treated cell lysates were analyzed with a western blot assay to measure protein thio-phosphorylation with the anti-thiophosphate ester rabbit monoclonal antibodies (Abcam, USA).
Immunoprecipitation assays. The PNBM-treated cell lysates were pre-cleaned by an off-target antibody. Then the cleaned cell lysates were incubated with 10 μL anti-thiophosphate ester rabbit monoclonal antibody (Abcam, USA) at 4° C. for 12 hours. 100 μL protein G beads (Thermo Fisher Scientific, USA) were mixed under rotary agitation at 4° C. for 4 hours, washed twice by wash buffer, and the beads were collected. […]
(§4) Western blotting assay. First, total protein concentrations of the cell lysates were determined by a BCA protein assay kit (Thermo, USA). […]

[3] = biological target: T3, AKT2^M-G (Homo sapiens, UniProt P31751, M229G); assay: Live cell AKT substrate tagging, cells transfected with AKT2^M-G; format: cell-based; conditions: HCT116 cells, AKT^M-G expression vector (AKT1 and AKT2 stated together), A*TPγS delivery
T3 construct: expressed in transfected cells; host or cells: HCT116
T3 sequence (P31751 whole entry M229G): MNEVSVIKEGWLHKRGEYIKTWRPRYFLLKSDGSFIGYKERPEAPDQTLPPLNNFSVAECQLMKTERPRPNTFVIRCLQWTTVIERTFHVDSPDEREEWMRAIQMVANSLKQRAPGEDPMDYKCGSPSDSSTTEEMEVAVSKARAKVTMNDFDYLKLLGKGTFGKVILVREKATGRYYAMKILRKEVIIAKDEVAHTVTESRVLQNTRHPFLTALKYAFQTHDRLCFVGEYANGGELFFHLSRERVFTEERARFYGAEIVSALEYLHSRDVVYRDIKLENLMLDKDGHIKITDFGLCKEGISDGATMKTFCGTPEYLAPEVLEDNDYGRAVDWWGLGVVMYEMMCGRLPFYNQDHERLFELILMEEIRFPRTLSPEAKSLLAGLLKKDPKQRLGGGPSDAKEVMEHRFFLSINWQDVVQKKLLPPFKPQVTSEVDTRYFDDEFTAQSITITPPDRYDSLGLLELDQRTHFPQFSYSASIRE
Method: as §3
(§5) Immunoprecipitation assays. The PNBM-treated cell lysates were pre-cleaned by an off-target antibody. Then the cleaned cell lysates were incubated with 10 μL anti-thiophosphate ester rabbit monoclonal antibody (Abcam, USA) at 4° C. for 12 hours. 100 μL protein G beads (Thermo Fisher Scientific, USA) were mixed under rotary agitation at 4° C. for 4 hours, washed twice by wash buffer, and the beads were collected. Then, proteins were captured in the beads and released by elution buffer. The elution buffer was collected and stored at −80° C.
(§6) Western blotting assay. First, total protein concentrations of the cell lysates were determined by a BCA protein assay kit (Thermo, USA). Protein extracts were separated by SDS-PAGE, then transferred onto a nitrocellulose membrane (NC membrane). […]

[4] = biological target: T4, AKT2 (Homo sapiens, UniProt P31751); assay: Live cell AKT substrate tagging, cells transfected with WT AKT2; format: cell-based; conditions: HCT116 cells, WT-AKT expression vector (AKT1 and AKT2 stated together), A*TPγS delivery
T4 construct: expressed in transfected cells; host or cells: HCT116
T4 sequence (P31751 whole entry): as the sequence (P31751 whole entry M229G) above, with G229M counted along it
Method: as §3, §5, §6

[5] = biological target: T5, wild type AKT1 (Homo sapiens, UniProt P31749); assay: Intracellular A*TPγS delivery and thio-phosphorylation assay, cells transfected with wild type AKT1; format: cell-based; set-up: host or cells: HCT116
Method: as §1, §2
Target sequence in this assay (P31749 whole entry): as the sequence (P31749 whole entry M227G) above, with G227M counted along it
Intracellular A*TPγS delivery and thio-phosphorylation assays. […] Then, the PNBM treated cell lysates were analyzed with a western blot assay to measure protein thio-phosphorylation with the anti-thiophosphate ester rabbit monoclonal antibodies (Abcam, USA). […]
as §4

[6] = biological target: AKT1 mutant with enlarged ATP binding pocket (Homo sapiens, UniProt P31749, M227G); conditions: cited from earlier work
Sequence of AKT1 mutant with enlarged ATP binding pocket (P31749 whole entry M227G): as the sequence (P31749 whole entry M227G) above

[7] = biological target: T5, wild type AKT1; conditions: in vitro; cited from earlier work
Target sequence in this assay (P31749 whole entry, species assumed): as the sequence (P31749 whole entry M227G) above, with G227M counted along it

T1 sequence (P31749 whole entry M227G): as the sequence (P31749 whole entry M227G) above

Compound: TNP-N^6-Benzyl-ATP [TNP-A*TP]
- TNP-A*TP fluorescence signal, subcellular localization ([1]; Akt1M-G-expressing cells): localized mainly to cell membrane
- TNP-A*TP fluorescence signal, specificity ([1]; cells transfected with Akt1M-G or WT Akt1 vectors): specific to Akt1M-G-expressing cells

Compound: N^6-Benzyladenosine-5′-(3-thiotriphosphate) [A*TPγS]
- AKT1 auto-thiophosphorylation: HA-tag Western blot of anti-thiophosphate-ester immunoprecipitant ([2]; HCT116 cells, mutant AKT1 vector, A*TPγS-loaded LCP nanoparticle 4 hours, PNBM alkylation): detected
- thiophosphorylation of AKT1 substrate IKKalpha: IKKalpha Western blot of anti-thiophosphate-ester immunoprecipitant ([2]; HCT116 cells, mutant AKT1 vector, A*TPγS-loaded LCP nanoparticle, PNBM alkylation): detected
- proteins immunoprecipitated by thiophosphate ester antibody (SDS-PAGE, silver blue coomassie stain) ([2]; lysate of mutant-AKT1-expressing HCT116 cells treated with the nanoparticle): immunoprecipitate at high quantities a large number of proteins
- thio-phosphorylation by Western blot with alkylated thiophosphate-tag antibody [3]: detected thio-phosphorylation
- thio-phosphorylation by Western blot with alkylated thiophosphate-tag antibody [4]: not those of WT-AKT transfected cells
- AKT1 auto-thiophosphorylation: HA-tag Western blot of anti-thiophosphate-ester immunoprecipitant ([5]; HCT116 cells, wild type AKT1 vector, A*TPγS-loaded LCP nanoparticle 4 hours, PNBM alkylation): not detected
- proteins immunoprecipitated by thiophosphate ester antibody (SDS-PAGE, silver blue coomassie stain) ([5]; lysate of wild-type-AKT1-expressing HCT116 cells treated with the nanoparticle): not from that of wild-type-AKT1-expressing cells

Compound: O=P(O)(O)OP(=O)(O)OP(=O)(O)OC[C@H]1O[C@@H](n2cnc3c(NCc4ccccc4)ncnc32)[C@H](O)[C@@H]1O [A*TP, N^6-Benzyl-ATP]
- binding to AKT1 mutant with enlarged ATP binding pocket [6]: has been shown to bind

Compound: Nc1ncnc2c1ncn2[C@@H]1O[C@H](COP(=O)(O)OP(=O)(O)OP(O)(O)=S)[C@@H](O)[C@H]1O [ATPγS]
- utilization by wild type AKT1 to tag substrate GSK3β [7]: can be utilized by wild type AKT1 to tag its substrate GSK3β in vitro
